Test results reported in patent US20250090437A1, “COSMETIC COMPOUNDING AGENT, COSMETIC AND PRODUCTION METHOD THEREOF” (MIYOSHI OIL & FAT CO., LTD., priority 2019, published 2025).

Key:
[1] = Sensory evaluation on damaged hair after using organic ammonium salt; set-up: species or system human; conditions: damaged hair, 80 wt % aqueous solution
Procedure: Here, an 80 wt % aqueous solution(s) of each of the compounds B11, B12, B23, B26 and B27 (content in terms of anhydride in the cases of the compounds B11, B12 and B23) were prepared and used as samples. Next, one minute was spent in evenly applying 10.0 g of each sample to a bundle of the damaged hairs weighing about 10 g, using a brush; the bundle of the damaged hairs was then left for 5 min. After leaving it for 5 min, the bundle of the damaged hairs was rinsed with a hot water of 40° C. for 30 sec, and evaluated was a finger-combing capability at the time of performing washing. The hair bundle that had been rinsed was then dried with a towel and further subjected to air drying for a day, followed by evaluating items such as elasticity/resilience (feeling by bare hands), cohesiveness, surface smoothness and non-waviness, from the perspective of superiority or inferiority to a test hair bundle(s) uncoated with the sample.

[2] = Sensory evaluation on healthy hair after using shampoo agent containing organic ammonium salt; set-up: species or system human; conditions: shampoo agent containing 3.0% by mass of the compound; treated 10 times
Procedure: Next, the mixture was cooled to a temperature of 30° C. or lower, and a purified water of an evaporated amount was then added thereto so that the whole hair treatment composition would be 100% by mass, followed by uniformly mixing them so as to obtain a hair treatment composition(s). The pH level of the hair treatment composition was adjusted to pH 6.0 by adding a citric acid or sodium hydroxide.
About 5 g of the healthy hair was taken and dipped into 350 ml of a seven-time dilute aqueous solution of each of the abovementioned hair treatment compositions (shampoo agents) at 35 to 40° C. so as to be washed. The healthy hair was then subjected to a rinsing treatment five times using 500 ml of a warm water of 35 to 40° C., followed by drying the same at 80° C., and then performing air drying at 25° C. Such series of treatment involving hair washing, rinsing and drying was repeated 10 times to then evaluate a cohesiveness of the hair, a moist feeling of the hair, a gloss of the hair, a surface smoothness of the hair and a non-stickiness on the surface of the hair, after performing air drying.

[3] = Water retention property test 1; format: physicochemical; conditions: 80 wt % aqueous solution
Procedure: A moisture rate after 24 hours was again measured (post-test moisture rate: B), followed by using the formula below to calculate a rate of reduction in moisture so as to evaluate the water retention property. • Pre-test moisture rate: A (%) • Post-test moisture rate: B (%)

[4] = Water confinement property test (barrier property); format: physicochemical; conditions: 80 wt % aqueous solution, 0.01 mL/cm^2 on filter paper, 40° C. and 25% RH, 24 hours
[5] = Water retention property test 3 (long term); format: physicochemical; conditions: 80 wt % aqueous solution, 40° C. and 25% RH
Procedure: In a water retention property test 3, an 80 wt % aqueous solution of each of the compounds C8, C11, C62, C63 and C64 was prepared, followed by using a Karl Fischer moisture meter to confirm that a moisture rate was 20.0 wt %. Next, 1.0 g of each of these samples was added to a screw tube, and this screw tube, while remaining unsealed, was then left to stand still in a thermo-hygrostat set to 40° C. and 25% RH. […] In addition, the water retention property was evaluated by calculating an amount of moisture reduction per hour (mg/h) based on each amount of moisture reduction (mg).

[6] = Water retention property and adherability with respect to healthy hair; set-up: species or system human
[7] = test system: keratin; test: Keratin adherability; conditions: 1 g keratin in 2 g of 50 wt % aqueous solution, 25° C., 24 hours
Procedure: Here, 1 g of a powdery keratin (by Tokyo Chemical Industry Co., Ltd.) (pre-test keratin) was added to 2 g of a 50 wt % aqueous solution of each of the compounds B11, B23, B26 and B27, followed by performing stirring at 25° C. for 24 hours. After stirring, filtration was performed, and a powdery keratin obtained was then dried so as to obtain a keratin that had been treated (post-test keratin).
A rate of compound adhesion to keratin was calculated with the following formula.

[8] = unsealed, 24 hours at 40° C. and 25% RH

## OCC(O)CO [Compound A52, glycerin, reference compound]
[1]
  After air drying: Cohesiveness of hair: Δ~X
  After air drying: Elasticity/Resilience: Δ~X
  After air drying: Smoothness of hair surface: Δ~X
  After air drying: Suppression of hair waviness: Δ~X
  When washing: Finger-combing capability: Δ~X
[2]
  Sensory evaluation of healthy hair after shampoo agent (cohesiveness, moist feeling, gloss, smoothness, non-stickiness): inferior in general
[3]; before the test (Karl Fischer)
  Pre-test moisture rate: 20.0%
[3]; [8]
  Post-test moisture rate: 18.0%
  Rate of reduction in moisture: 10.0%
[4]
  Water evaporation inhibition rate: 16.2%
[5]; unsealed
  Amount of moisture reduction in 120 to 144 h: 29.4 mg
  Amount of moisture reduction in 144 to 168 h: 30.0 mg
  Amount of moisture reduction in 168 to 192 h: 13.1 mg
  Moisture rate after 144 h: 5.4%
  Moisture rate after 168 h: 1.9%
  Moisture rate after 192 h: 0.3%
[5]; 120~144 h
  Amount of moisture reduction per hour: 1.2 mg/h
[5]; 144~168 h
  Amount of moisture reduction per hour: 1.3 mg/h
[5]; 168~192 h
  Amount of moisture reduction per hour: 0.5 mg/h
[6]; healthy hair immersed 60 min in 80 wt % aqueous solution, after 24 hours at 40° C., 35 to 40% RH, pre-test 7.6%
  Post-test moisture rate: 5.3%
[6]; healthy hair immersed 60 min in 80 wt % aqueous solution, listed as B26
  Compound adhesion rate: 1.0%
[6]; healthy hair, 80 wt % aqueous solution, 24 hours at 40° C., 35 to 40% RH
  Rate of reduction in moisture: 30%
[7]
  Rate of compound adhesion to keratin: 11.0%
